# Reference: ChEMBL document CHEMBL5518209, “Caltrop-like Small-Molecule Antidotes That Neutralize Unfractionated Heparin and Low-Molecular-Weight Heparin In Vivo” (J Med Chem, 2024)
# Active and inactive are the calls of the source. The rule behind the calls is not given here.
# Experiments:
# Blood [1] = assay: Ex vivo neutralization of dalteparin sodium in Sprague-Dawley rat whole blood assessed as restoration of blood coagulation at 10 to 15 ug/ml incubated for 15 mins; type: functional, tissue-based; conditions: dose 10-15 µg/ml
# Blood [2] = assay: Ex vivo neutralization of unfractionated heparin in Sprague-Dawley rat whole blood assessed as restoration of blood coagulation at 10 to 15 ug/ml incubated for 15 mins; type: functional, tissue-based; conditions: dose 10-15 µg/ml
# [3] = Binding affinity to nadroparin calcium in saline at pH 7.4 assessed as change in gibbs free energy by ITC analysis
# Homo sapiens [4] = species on record: Homo sapiens; assay: Reversal of anticoagulation of enoxaparin sodium in human whole blood assessed as restoration of normal clotting time at 5 to 20 ug/ml incubated for 5 mins by thromboelastography; type: tissue-based; conditions: dose 5-20 µg/ml
# Bos taurus [5] = species on record: Bos taurus; assay: Neutralization of nadroparin calcium in bovine plasma at 10 to 60 ug/ml by aPTT assay; type: cell-free; conditions: dose 10-60 µg/ml
# [6] = Toxicity in ICR mouse assessed as histopathological changes in lungs at 25 mg/kg, iv administered as single dose through tail vein and measured after 14 days by H and E staining based analysis; type: organism-based, Lung; conditions: in vivo, 336 h, time 14 day
# Rattus norvegicus [7] = assay: In vivo antagonism of enoxaparin sodium induced anticoagulation in Sprague-Dawley rat assessed as restoration of normal clotting time at 1 mg/kg, iv administered via tail vein pretreated with enoxaparin sodium for 5 mins followed by compound addition and measured after 2.5 mins by thromboelastography; type: functional, organism-based
# Homo sapiens [8] = species on record: Homo sapiens; assay: Reversal of anticoagulation of […] in human whole blood assessed as restoration of normal clotting strength at 2 to 20 ug/ml incubated for 5 mins by thromboelastography; type: tissue-based; conditions: dose 2-20 µg/ml
# [9] = Binding affinity to unfractionated heparin in saline at pH 7.4 assessed as change in enthalpy by ITC analysis
# Homo sapiens [10] = species on record: Homo sapiens; assay: Reversal of anticoagulation of dalteparin sodium in human whole blood assessed as restoration of normal clotting strength at 2 to 20 ug/ml incubated for 5 mins by thromboelastography; type: tissue-based; conditions: dose 2-20 µg/ml
# [11] = Toxicity in ICR mouse assessed as histopathological changes in heart at 25 mg/kg, iv administered as single dose through tail vein and measured after 14 days by H and E staining based analysis; type: organism-based; conditions: in vivo, 336 h, time 14 day
# Homo sapiens [12] = species on record: Homo sapiens; assay: Reversal of anticoagulation of enoxaparin sodium in human whole blood assessed as restoration of normal clotting strength at 2 to 20 ug/ml incubated for 5 mins by thromboelastography; type: tissue-based; conditions: dose 2-20 µg/ml
# Homo sapiens [13] = species on record: Homo sapiens; assay: Reversal of anticoagulation of unfractionated heparin in human whole blood assessed as restoration of normal clotting strength at 2 to 20 ug/ml incubated for 5 mins by thromboelastography; type: tissue-based; conditions: dose 2-20 µg/ml
# Rattus norvegicus [14] = assay: In vivo antagonism of enoxaparin sodium induced anticoagulation in Sprague-Dawley rat assessed as restoration of normal clotting rate at 1 mg/kg, iv administered via tail vein pretreated with enoxaparin sodium for 5 mins followed by compound addition and measured after 2.5 mins by thromboelastography; type: functional, organism-based
# [15] = Toxicity in ICR mouse assessed as histopathological changes in kidneys at 25 mg/kg, iv administered as single dose through tail vein and measured after 14 days by H and E staining based analysis; type: organism-based, Kidney; conditions: in vivo, 336 h, time 14 day
# [16] = Binding affinity to dalteparin sodium in saline at pH 7.4 assessed as change in gibbs free energy by ITC analysis
# [17] = Cytotoxicity against human MCF7 cells assessed as cell viability at 300 ug/ml incubated for 24 hrs by CCK-8 assay relative to control; type: toxicity, cell-based; conditions: at 300 µg/mL, read-out: Activity
# [18] = Binding affinity to enoxaparin sodium in saline at pH 7.4 assessed as change in entropy by ITC analysis
# [19] = Toxicity in ICR mouse assessed as histopathological changes in liver at 25 mg/kg, iv administered as single dose through tail vein and measured after 14 days by H and E staining based analysis; type: organism-based; conditions: in vivo, 336 h, time 14 day
# Homo sapiens [20] = species on record: Homo sapiens; assay: Reversal of anticoagulation of enoxaparin sodium in human whole blood assessed as restoration of normal coagulation rate at 5 to 20 ug/ml incubated for 5 mins by thromboelastography; type: tissue-based; conditions: dose 5-20 µg/ml
# [21] = Binding affinity to nadroparin calcium in saline at pH 7.4 assessed as change in enthalpy by ITC analysis
# [22] = Toxicity in ICR mouse assessed as histopathological changes in spleen at 25 mg/kg, iv administered as single dose through tail vein and measured after 14 days by H and E staining based analysis; type: organism-based; conditions: in vivo, 336 h, time 14 day
# [23] = Binding affinity to enoxaparin sodium in saline at pH 7.4 assessed as binding constant by ITC analysis
# Homo sapiens [24] = species on record: Homo sapiens; assay: Neutralization of enoxaparin sodium in human poor platelet plasma at 10 to 50 ug/ml by aPTT assay relative to control; type: cell-free; conditions: dose 10-50 µg/ml
# Mus musculus [25] = assay: In vivo antagonism of unfractionated heparin induced anticoagulation in ICR mouse assessed as bleeding time at 0.4 mg/kg, iv administered via tail vein pretreated with heparin for 5 mins followed by compound addition and measured after 5 mins (reference value: 96.5 +/- 20.6 min); type: functional
# [26] = Binding affinity to enoxaparin sodium in saline at pH 7.4 assessed as change in gibbs free energy by ITC analysis
# Homo sapiens [27] = species on record: Homo sapiens; assay: Reversal of anticoagulation of dalteparin sodium in human whole blood assessed as restoration of normal coagulation rate at 5 to 20 ug/ml incubated for 5 mins by thromboelastography; type: tissue-based; conditions: dose 5-20 µg/ml
# Erythrocyte = assay: Hemolytic activity in human red blood cells at 512 ug/ml; type: toxicity, cell-based; conditions: dose 512 µg/ml
# [28] = Effect on bleeding time in ICR mouse at 0.4 mg/kg, iv treated for 5 mins; type: toxicity, organism-based; conditions: in vivo
# Homo sapiens [29] = species on record: Homo sapiens; assay: Reversal of anticoagulation of unfractionated heparin in human whole blood assessed as restoration of normal coagulation rate at 5 to 20 ug/ml incubated for 5 mins by thromboelastography; type: tissue-based; conditions: dose 5-20 µg/ml
# Rattus norvegicus [30] = assay: In vivo antagonism of enoxaparin sodium induced anticoagulation in Sprague-Dawley rat assessed as clotting time at 0.4 mg/kg, iv administered via tail vein pretreated with enoxaparin sodium for 5 mins followed by compound addition and measured after 2.5 mins by thromboelastography; type: functional
# Bos taurus [31] = species on record: Bos taurus; assay: Neutralization of enoxaparin sodium in bovine plasma at 10 to 60 ug/ml by aPTT assay; type: cell-free; conditions: dose 10-60 µg/ml
# [32] = Binding affinity to nadroparin calcium in saline at pH 7.4 assessed as increase in fluorescence by measuring inflection point by fluorescence titration method
# [33] = Binding affinity to nadroparin calcium in saline at pH 7.4 assessed as binding constant by ITC analysis
# Homo sapiens [34] = species on record: Homo sapiens; assay: Reversal of anticoagulation of unfractionated heparin in human whole blood assessed as minimum effective dose incubated for 5 mins by thromboelastography; type: tissue-based
# Mus musculus [35] = assay: In vivo antagonism of dalteparin sodium induced anticoagulation in ICR mouse assessed as bleeding time at 0.4 mg/kg, iv administered via tail vein pretreated with heparin for 5 mins followed by compound addition and measured after 5 mins (reference value: 96.5 +/- 20.6 min); type: functional
smiles,measurement,setting,value
NCCOc1ccc(-c2cc[n+](Cc3ccc(C(c4ccc(C[n+]5ccc(-c6ccc(OCCN)c(OCCN)c6)cc5)cc4)(c4ccc(C[n+]5ccc(-c6ccc(OCCN)c(OCCN)c6)cc5)cc4)c4ccc(C[n+]5ccc(-c6ccc(OCCN)c(OCCN)c6)cc5)cc4)cc3)cc2)cc1OCCN.[Cl-].[Cl-].[Cl-].[Cl-],Activity,Blood [1],Active
same,Activity,Blood [2],Active
same,deltaG,[3],-9.92 kcal/mol
same,Activity,Homo sapiens [4],Active
same,Activity,Bos taurus [5],Active
same,Activity,[6],Non-Toxic
same,Activity,Rattus norvegicus [7],Active
same,Activity,Homo sapiens [8],Active
same,deltaH,[9],-5.86 kcal/mol
same,Activity,Homo sapiens [10],Active
same,Activity,[11],Non-Toxic
same,Activity,Homo sapiens [12],Active
same,Activity,Homo sapiens [13],Active
same,Activity,Rattus norvegicus [14],Active
same,Activity,[15],Non-Toxic
same,deltaG,[16],-10.5 kcal/mol
same,"viability at 24 h, 300 ug/ml",[17],> 80%
same,-TdeltaS,[18],-2.05 kcal/mol
same,Activity,[19],Non-Toxic
same,Activity,Homo sapiens [20],Active
same,deltaH,[21],-6.53 kcal/mol
same,Activity,[22],Non-Toxic
same,Ka,[23],1.79e+07 M⁻¹
same,Activity,Homo sapiens [24],97%
same,Time,Mus musculus [25],22.7 min
same,deltaG,[26],-9.91 kcal/mol
same,Activity,Homo sapiens [27],Active
same,Activity,Erythrocyte,Non-Toxic
same,Activity,[28],Non-Toxic
same,Activity,Homo sapiens [29],Active
same,Time,Rattus norvegicus [30],3.63 min
same,Activity,Bos taurus [31],Active
same,IP,[32],3
same,Ka,[33],1.87e+07 M⁻¹
same,MED,Homo sapiens [34],4 µg/mL
same,Time,Mus musculus [35],20.9 min
